From patent US4330542A, “N(Sulfonyl)anilines for treating angina pectoris” (Sanofi, priority 1979, dated 1982) come the findings set out here.

What is called LD50 is the dose at which mortality reaches 50%. A lower LD50 goes with greater toxicity.

The nature of data set [1]: Heart-rate in anaesthetized atropinized dogs after intravenous injection. Format: in vivo. To be noted: anaesthetized atropinized dog, 10 mg/kg intravenous. The method, then:
(§1) The pharmacological investigation was carried out on anaesthetized dogs (30 mg/kg I.V. of sodium pentobarbital) having previously received an intravenous dose of 1 mg/kg of atropine sulphate.
(§2) The substance to be tested was given by an intravenous injection lasting two minutes after which the behaviour of both heart-rate and blood-pressure was observed over a certain period of time. An investigation was then carried out to detect any antiadrenergic properties. The compound listed hereunder were tested, in most cases in the form of pharmaceutically acceptable acid addition salts: […]

For data set [2], the system named is β-system. In words: Antiadrenergic effect on the β-system: reduction of isoprenaline-increased heart-rate in the dog. Format: in vivo. The settings on record: anaesthetized atropinized dog, same method as epinephrine test (10 mg/kg intravenous). The method, then:
(§3) A dose of epinephrine, sufficient to produce a stable increase in blood-pressure was administered to a dog anaesthetized with sodium pentobarbital which had previously received an intravenous injection of 1 mg/kg of atropine sulphate. The operation was repeated several times and the blood-pressure obtained was noted. When the latter had returned to its normal level, the animal was given an intravenous dose of 10 mg/kg of the compound to be tested followed by the same dose as above of epinephrine.
The antiadrenergic effects of the compounds of the invention on the β-system were also studied, by determining the degree to which they reduced isoprenaline-increased heart-rate. The same method as above was used.

For data set [3], the system named is α-system. In words: Inhibitory effect on the α-system: reduction of epinephrine-increased blood-pressure in the atropinized dog. Format: in vivo. To be noted: anaesthetized atropinized dog, 10 mg/kg intravenous. Here is the method: as §3
Data set [4] is described as follows: Blood-pressure in anaesthetized atropinized dogs after intravenous injection. The class given is in vivo. The settings on record: anaesthetized atropinized dog, 10 mg/kg intravenous. Here is the method: as §1, §2
The test system of data set [5] is α-system. The experiment in a line: Inhibitory effect on the α-system: reduction of epinephrine-increased blood-pressure in the atropinized dog. The class given is in vivo. The settings on record: anaesthetized atropinized dog, dose as low as 2 mg/kg.
The nature of data set [6]: Acute toxicity in the rat, intravenous route. To be noted: in vivo. The method, then:
Acute toxicity tests were also carried out on the rat, by intravenous route.

In the case of `C=CCOc1ccccc1N(CC(O)CNC(C)(C)C)S(=O)(=O)c1ccc(OC)cc1` (centres unmarked) [Compound 14, 2-Allyloxy-N-(3-tert-butylamino-2 hydroxy-propyl)-N-(4-methoxy-benzenesulphonyl)-aniline], the reduction in heart-rate result in data set [1] is “marked and long-lasting reduction in heart-rate”. Also, in data set [2], the “reduction in isoprenaline-increased heart-rate” value was “marked reduction in the isoprenaline-increased heart-rate”. The “reduction of epinephrine-induced arterial hypertension” value in data set [3] is on record as “reduced, at least partially, the epinephrine-induced arterial hypertension”.
For the molecule `C=CCOc1ccccc1N(CC(O)CN1CCN(c2ccc(F)cc2)CC1)S(C)(=O)=O` (centres unmarked) [Compound 23, 2-Allyloxy-N-[3-(4-(4-fluoro-phenyl)-1-piperazinyl)-2-hydroxy-propyl]-N-methylsulphonyl-aniline], the reduction in blood-pressure entry in data set [4] was “marked and constant reduction in blood-pressure”. In addition, the “reduction of epinephrine-induced arterial hypertension” value in data set [3] is “reduced, at least partially, the epinephrine-induced arterial hypertension”.
For the molecule `C=CCOc1ccccc1N(CC(O)CN1CCN(c2ccccc2OC)CC1)S(C)(=O)=O` (centres unmarked) [Compound 30, 2-Allyloxy-N-[2-hydroxy-3-(4-(2-methoxy-phenyl)-1-piperazinyl)-propyl]-N-methylsulphonyl-aniline], the reduction in blood-pressure entry in data set [4] is “marked and constant reduction in blood-pressure”. Besides, the “reduction in isoprenaline-increased heart-rate” value in data set [2] is reported as “marked reduction in the isoprenaline-increased heart-rate”. The “reduction of epinephrine-induced arterial hypertension at low dose” value in data set [5] was “Long-lasting and total reduction”. Further, the “reduction of epinephrine-induced arterial hypertension” value in data set [3] is “reduced, at least partially, the epinephrine-induced arterial hypertension”.
With `C=CCOc1ccccc1N(CC(O)CN1CCN(Cc2ccccc2)CC1)S(=O)(=O)c1ccc(C)cc1` (centres unmarked) [Compound 40, 2-Allyloxy-N-[3-(4-benzyl-1-piperazinyl)-2-hydroxy-propyl]-N-(4-methylbenzene-sulphonyl)-aniline], in data set [6], the LD50 amounted to 12 mg/kg. For the same molecule, in data set [4], the reduction in blood-pressure result was “marked and constant reduction in blood-pressure”. Also, in data set [1], the reduction in heart-rate entry is “marked and long-lasting reduction in heart-rate”. Further, the “reduction in isoprenaline-increased heart-rate” value in data set [2] was “marked reduction in the isoprenaline-increased heart-rate”. Also, in data set [3], the “reduction of epinephrine-induced arterial hypertension” value was “reduced, at least partially, the epinephrine-induced arterial hypertension”.
With `C=CCOc1ccccc1N(CC(O)CN1CCN(c2ccccn2)CC1)S(=O)(=O)c1ccc(OC)cc1` (centres unmarked) [Compound 53, 2-Allyloxy-N-[2-hydroxy-3-(4-(2-pyridyl)-1-piperazinyl)-propyl]-N-(4-methoxy-benzenesulphonyl)-aniline], in data set [4], the reduction in blood-pressure result was “marked and constant reduction in blood-pressure”. The “reduction of epinephrine-induced arterial hypertension” value in data set [3] is on record as “reduced, at least partially, the epinephrine-induced arterial hypertension”.
Turning to `C=CCOc1ccccc1N(CC(O)CN1CCN(c2ccccc2F)CC1)S(=O)(=O)c1ccc(OC)cc1` (centres unmarked) [Compound 57, 2-Allyloxy-N-[2-hydroxy-3-(4-(2-fluoro-phenyl)-1-piperazinyl)-propyl]-N-(4-methoxy-benzenesulphonyl)-aniline], in data set [1], the reduction in heart-rate entry is “marked and long-lasting reduction in heart-rate”. Moreover, in data set [3], the “reduction of epinephrine-induced arterial hypertension” value is “reduced, at least partially, the epinephrine-induced arterial hypertension”.
With `CS(=O)(=O)N(CC(O)CN1CCN(c2ccccc2Cl)CC1)c1ccc(Cl)c(Cl)c1` (centres unmarked) [Compound 75, 3,4-Dichloro-N-[3-(4-(2-chloro-phenyl)-1-piperazinyl)-2-hydroxy-propyl]-N-methylsulphonyl-aniline], the reduction in blood-pressure entry in data set [4] was “marked and constant reduction in blood-pressure”. Moreover, the “reduction of epinephrine-induced arterial hypertension” value in data set [3] is given as “reduced, at least partially, the epinephrine-induced arterial hypertension”.
As to `COc1ccccc1N1CCN(CC(O)CN(c2ccc(Cl)c(Cl)c2)S(C)(=O)=O)CC1` (centres unmarked) [Compound 77, 3,4-Dichloro-N-[2-hydroxy-3-(4-(2-methoxy-phenyl)-1-piperazinyl)-propyl]-N-methylsulphonyl-aniline], the reduction in blood-pressure result in data set [4] was “marked and constant reduction in blood-pressure”. Moreover, the reduction in heart-rate result in data set [1] is “marked and long-lasting reduction in heart-rate”. For the same molecule, the “reduction of epinephrine-induced arterial hypertension” value in data set [3] is “reduced, at least partially, the epinephrine-induced arterial hypertension”.
`COc1ccc(S(=O)(=O)N(CC(O)CN2CCN(c3ccc(Cl)cc3)CC2)c2ccc(Cl)c(Cl)c2)cc1` (centres unmarked) [Compound 84, 3,4-Dichloro-N-[3-(4-(4-chloro-phenyl)-1-piperazinyl)-2-hydroxy-propyl]-N-(4-methoxy-benzenesulphonyl)-aniline]: the reduction in heart-rate entry in data set [1] is “marked and long-lasting reduction in heart-rate”. In data set [3], the “reduction of epinephrine-induced arterial hypertension” value is recorded as “reduced, at least partially, the epinephrine-induced arterial hypertension”.
For the molecule `CC(=O)Nc1ccc(N(CC(O)CN2CCN(c3ccccc3)CC2)S(C)(=O)=O)cc1` (centres unmarked) [Compound 88, 4-Acetylamino-N-[2-hydroxy-3-(4-phenyl-1-piperazinyl)-propyl]-N-methylsulphonyl-aniline], the reduction in blood-pressure entry in data set [4] is “marked and constant reduction in blood-pressure”. Also, the “reduction in isoprenaline-increased heart-rate” value in data set [2] is “marked reduction in the isoprenaline-increased heart-rate”. Moreover, the “reduction of epinephrine-induced arterial hypertension” value in data set [3] is reported as “reduced, at least partially, the epinephrine-induced arterial hypertension”.
In the case of `COc1ccccc1N1CCN(CC(O)CN(c2ccc(NC(C)=O)cc2)S(C)(=O)=O)CC1` (centres unmarked) [Compound 90, 4-Acetylamino-N-[2-hydroxy-3-(4-(2-methoxy-phenyl)1-piperazinyl)-2-hydroxy-propyl]-N-methyl-sulphonyl-aniline], in data set [4], the reduction in blood-pressure result is “marked and constant reduction in blood-pressure”. Also, the “reduction of epinephrine-induced arterial hypertension” value in data set [3] was “reduced, at least partially, the epinephrine-induced arterial hypertension”.
With `CC(=O)Nc1ccc(N(CC(O)CN2CCN(c3ccccc3)CC2)S(=O)(=O)c2ccc(C)cc2)cc1` (centres unmarked) [Compound 91, 4-Acetylamino-N-[2-hydroxy-3-(4-phenyl-1-piperazinyl)-propyl]-N-(4-methyl-benzenesulphonyl)-aniline], in data set [4], the reduction in blood-pressure entry was “marked and constant reduction in blood-pressure”. Besides, the reduction in heart-rate entry in data set [1] is “marked and long-lasting reduction in heart-rate”. In data set [3], the “reduction of epinephrine-induced arterial hypertension” value is listed as “reduced, at least partially, the epinephrine-induced arterial hypertension”.
In the case of `COc1ccccc1N1CCN(CC(O)CN(c2ccc(NC(C)=O)cc2)S(=O)(=O)c2ccc(C)cc2)CC1` (centres unmarked) [Compound 94, 4-Acetylamino-N-[2-hydroxy-3-(4-(2-methoxy-phenyl)-1-piperazinyl)-propyl]-N-(4-methyl-benzenesulphonyl)-aniline], the reduction in blood-pressure result in data set [4] is “marked and constant reduction in blood-pressure”. Besides, the reduction in heart-rate result in data set [1] was “marked and long-lasting reduction in heart-rate”. For the same molecule, in data set [3], the “reduction of epinephrine-induced arterial hypertension” value was “reduced, at least partially, the epinephrine-induced arterial hypertension”.
On to `CC(=O)Nc1ccc(N(CC(O)CN2CCN(c3ccccc3Cl)CC2)S(=O)(=O)c2ccc(C)cc2)cc1` (centres unmarked) [Compound 95, 4-Acetylamino-N-[3-(4-(2-chloro-phenyl)-1-piperazinyl)-2-hydroxy-propyl]-N-(4-methyl-benzenesulphonyl)-aniline], for which the reduction in blood-pressure result in data set [4] was “marked and constant reduction in blood-pressure”.
For `COc1ccccc1N1CCN(CC(O)CN(c2ccc(CC(N)=O)cc2)S(=O)(=O)c2ccc(C)cc2)CC1` (centres unmarked) [Compound 105, N-[2-hydroxy-3-(4-(2-methoxy-phenyl)-1-piperazino)-propyl]-N-(4-methyl-benzenesulphonyl)-4-amino-phenylacetamide], in data set [4], the reduction in blood-pressure entry was “marked and constant reduction in blood-pressure”. Besides, the “reduction of epinephrine-induced arterial hypertension” value in data set [3] is “reduced, at least partially, the epinephrine-induced arterial hypertension”.
As for “N-[2-hydroxy-3-(4-(2-methoxy-phenyl)-1-piperazinyl)-propyl]-N-methylsulphonyl-4-amino-phenylacetamide [Compound 102]”, the reduction in blood-pressure entry in data set [4] is “marked and constant reduction in blood-pressure”. The reduction in heart-rate result in data set [1] is “marked and long-lasting reduction in heart-rate”. In addition, the “reduction of epinephrine-induced arterial hypertension at low dose” value in data set [5] was “Long-lasting and total reduction”. Moreover, the “reduction of epinephrine-induced arterial hypertension” value in data set [3] is reported as “reduced, at least partially, the epinephrine-induced arterial hypertension”.
Regarding “N-[3-(4-(4-chlorophenyl)-1-piperazinyl)-2-hydroxy-propyl]-N-methylsulphonyl-4-amino-phenylacetamide [Compound 99]”, the “reduction of epinephrine-induced arterial hypertension” value in data set [3] is “reduced, at least partially, the epinephrine-induced arterial hypertension”.
